Assay results reported in PubChem BioAssay (NCI).
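The compound was tested at five concentrations on cells cultured in 96-well plates, with a 48-hour exposure period. At the GI50, growth is halved. The concentration for full growth arrest is given as TGI.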

Experiments:
Assay in all cases: inhibition of tumour cell growth, NCI panel, 48 h
SNB-19 CNS = test system: SNB-19 CNS
A498 renal = test system: A498 renal
M14 melanoma = test system: M14 melanoma
SF-539 CNS = test system: SF-539 CNS
SN12C renal = test system: SN12C renal
PC-3 prostate = test system: PC-3 prostate
HT29 colon = test system: HT29 colon
LOX IMVI melanoma = test system: LOX IMVI melanoma
OVCAR-5 ovarian = test system: OVCAR-5 ovarian
HCT-15 colon = test system: HCT-15 colon

Row | SMILES | GI50 (SNB-19 CNS) [µM] | TGI (SNB-19 CNS) [µM] | GI50 (A498 renal) [µM] | TGI (A498 renal) [µM] | GI50 (M14 melanoma) [µM] | TGI (M14 melanoma) [µM] | GI50 (SF-539 CNS) [µM] | TGI (SF-539 CNS) [µM] | GI50 (SN12C renal) [µM] | TGI (SN12C renal) [µM] | GI50 (PC-3 prostate) [µM] | TGI (PC-3 prostate) [µM] | GI50 (HT29 colon) [µM] | TGI (HT29 colon) [µM] | GI50 (LOX IMVI melanoma) [µM] | TGI (LOX IMVI melanoma) [µM] | GI50 (OVCAR-5 ovarian) [µM] | TGI (OVCAR-5 ovarian) [µM] | GI50 (HCT-15 colon) [µM] | TGI (HCT-15 colon) [µM]
1 | N#Cc1ccc(Oc2nccc(-c3c(-c4ccc(F)cc4)ncn3C3CCNCC3)n2)cc1 | > 25 | > 25 | > 25 | > 25 | > 16.4 | > 25 | > 25 | > 25 | > 25 | > 25 | 13.9 | > 25 | 3.76 | 8.03 | 5.85 | > 13.5 | > 25 | > 25 | > 14.8 | > 25
2 | O=C(N[C@H](c1ccc(Cl)c(Cl)c1)C1CNC1)c1ccc2cnccc2c1 | 8.9 | 21.5 | 1.78 | 10.5 | 4.18 | 16.7 | 1.71 | 11.3 | 2.76 | 15.7 | 3.48 | 16.1 | 3.24 | 14.4 | 3.42 | 13.9 | 2.94 | 16.7 | 5.02 | 18.3
3 | Nc1nc(N)c2cc(CNc3ccc(Cl)c(Cl)c3)ccc2n1 | 0.822 | 2.09 | 1.76 | 8.54 | 0.13 | 1.7 | 0.825 | 2.13 | 0.732 | 2.12 | 0.412 | 1.89 | 0.287 | 1.65 | 0.146 | 1.55 | 0.756 | 2.05 | 0.365 | 1.72
4 | CCCc1cc(=O)oc2c(C(=O)CC(C)C)c(O)c(CC=C(C)C)c(O)c12 | 14.5 | > 50 | 4.04 | 17.9 | 10.3 | > 50 | 9.8 | 44.2 | 8.84 | > 50 | 6.22 | 34.3 | 15.1 | > 50 | 12.9 | > 50 |  |  | 5.81 | > 50
5 | Cc1ccc(-n2c3c(c4c(CN5CCCCC5)c(O)ccc42)CCc2ccccc2C3=O)cc1 | > 100 | > 100 | > 100 | > 100 | > 100 | > 100 | 50 | > 100 | > 100 | > 100 | 59.2 | > 100 |  |  | > 100 | > 100 | > 100 | > 100 | > 100 | > 100
6 | CN(C)CC(C(=O)c1ccccc1)c1ccccc1 (stereo unspecified) | 6.1 | 19.4 | 4.44 | 18.4 | 1.46 | 2.92 | 2.25 | 5.04 | 1.57 | 3.35 | 4.12 | 16.9 | 0.662 | 2.15 | 0.765 | 2.33 | 5.93 | 16.8 | 1.11 | 2.54
